# Experimental data from patent US12516081B2, “Anti-viral compounds and methods of use” (Metro International Biotech, LLC, priority 2020, dated 2026).
# Where two headings read alike, the source gives them in different places.
# How the values were obtained:
# SARS-CoV-2, USA-WA1/2020 = experiment: Antiviral assay: inhibition of SARS-CoV-2 cytopathic effect (neutral red) in Vero 76 cells; type: cell-based; settings: read-out: Anti-viral Assay (EC50)
# NAD in murine liver = experiment: In vivo NAD assay, mouse liver; settings: 500 mg/kg oral, mice
# Procedure: (§1) FIG. 1 provides the mean composite NAD assayed concentration in mouse liver cells. The Y-axis is concentration in mmol/kg. […] The left-most bar at each time point is vehicle, the central bar is reference compound nicotinamide mononucleotide (NMN), and the right-most bar at each time point is Compound 2. Each compound is administered orally to mice at 500 mg/kg.
# (§2) In vivo NAD and NAAD assay: Animals were dosed with 500 mg/kg of test compound or reference compound in vehicle.
# [1] = test system: NAAD in murine skeletal muscle; experiment: In vivo NAAD assay, mouse skeletal muscle; settings: 500 mg/kg oral, mice, 8 hour time point, FIG. 2
# Procedure: as §1, with “2” for “1”, “NAAD” for “NAD”, “skeletal muscle” for “liver”
# as §2
# [2] = concentration inhibiting CPE by 50%; i) and ii) are separate determinations
compound,measurement,setting,value
"N#C[C@@]1(c2ccc3c(N)ncnn23)O[C@H](COP(=O)([O-])OC[C@H]2O[C@@H]([n+]3cccc(C(=O)O)c3)[C@H](O)[C@@H]2O)[C@@H](O)[C@H]1O [Compound 1, ((2R,3S,4R,5R)-5-(4-aminopyrrolo[2,1-f][1,2,4]triazin-7-yl)-5-cyano-3,4-dihydroxytetrahydrofuran-2-yl)methyl (((2R,3S,4R,5R)-5-(3-carboxy-1λ^4-pyridin-1-yl)-3,4-dihydroxytetrahydrofuran-2-yl)methyl)_phosphate]",EC50,"SARS-CoV-2, USA-WA1/2020; Severe acute respiratory syndrome coronavirus 2, Vero 76, 120 h, concentration inhibiting CPE by 50%; Vero 76 cells, neutral red, day 5 post-infection; i) and ii) are separate determinations",17 µM
same,EC50,"SARS-CoV-2, USA-WA1/2020; concentration inhibiting CPE by 50%; Vero 76 cells, neutral red, day 5 post-infection; i) and ii) are separate determinations",31 µM
"NC(=O)c1ccc[n+]([C@@H]2O[C@H](COP(=O)([O-])O)[C@@H](O)[C@H]2O)c1 [Nicotinamide mononucleotide (NMN), Nicotinamide mononucleotide, reference compound]",EC50,"SARS-CoV-2, USA-WA1/2020; [2]",> 2000 µM
"CCC(CC)COC(=O)[C@H](C)N[P@](=O)(OC[C@H]1O[C@@](C#N)(c2ccc3c(N)ncnn23)[C@H](O)[C@@H]1O)Oc1ccccc1 [Remdesivir, reference compound]",EC50,"SARS-CoV-2, USA-WA1/2020; Severe acute respiratory syndrome coronavirus 2, Vero 76, 120 h; concentration inhibiting CPE by 50%; i) and ii) are separate determinations",1.9 to 6 µM
"((2R,3S,4R,5R)-5-(3-((((2R,3S,4R,5R)-5-(4-aminopyrrolo[2,1-f][1,2,4]triazin-7-yl)-5-cyano-3,4-dihydroxytetrahydrofuran-2-yl)methoxy)carbonyl)-1λ^4-pyridin-1-yl)-3,4-dihydroxytetrahydrofuran-2-yl)methyl hydrogen phosphate [Compound 2]",Oral availability,NAD in murine liver,orally available
same,NAD level in murine liver,"NAD in murine liver; 8 hour time point, FIG. 1",boosted
same,NAAD level in murine skeletal muscle,[1],boosted
NAR-2′C-Methyl-6-O-methyl-5′-guanosine ester [Compound 6],EC50,"SARS-CoV-2, USA-WA1/2020; [2]",> 100 µM
NAR-2′C-methyl 5′-uridine ester [Compound 4],EC50,"SARS-CoV-2, USA-WA1/2020; [2]",> 100 µM
NAR-2′C-methyl-5′-cytidine ester [Compound 5],EC50,"SARS-CoV-2, USA-WA1/2020; [2]",> 100 µM
NAR-2′C-methyl-5′-guanosine ester [Compound 3],EC50,"SARS-CoV-2, USA-WA1/2020; [2]",> 100 µM
